# Laboratory results: PMC3616073, “Engineering Agatoxin, a Cystine-Knot Peptide from Spider Venom, as a Molecular Probe for In Vivo Tumor Imaging” (PLoS ONE, 2013)
# Like-named read-outs stand apart in the source and are kept apart here. Where a SMILES comes first, the peptide text is derived from it. Bridges are numbered along the chain shown (N, C = ends).
# Assays:
# [1] = parameters: method as in PMID 20124048, PMID 19276378; conditions: cited from earlier work; for Stability in serum and blood: radiolabeled probes of earlier studies
# [2] = molecular target: T1, αvβ3 integrin on K562-αvβ3 cells (Homo sapiens, UniProt P05106+P06756); experiment: Competition binding assay on K562-αvβ3 cells (FLAG-AgRP 7A competitor, flow cytometry); conditions: competition with 0.5 nM FLAG-AgRP 7A, 5×10^4 K562-αvβ3 cells in IBB, 4 hr at 4 °C, anti-FLAG flow cytometry, mean of three experiments ± SD, read-out: IC50 (relative binding affinity to K562-αvβ3 cells)
# T1 construct: expressed in transfected cells; host or cells: K562 leukemia cells (courtesy of S. Blystone)
# From the text: Competition binding assays were used to measure the relative affinities of the AgTx 7C variants and AgRP 7C to K562 leukemia cells transfected to express high levels of αvβ3 integrin [50]. […] FLAG-AgRP 7A contains an N-terminal FLAG epitope tag (DYKDDDDK), which allows detection of cell surface binding by flow cytometry using a fluorescently labeled anti-FLAG antibody.
# Figure 3 Engineered AgTx 7C variants bind to K562-αvβ3 cells with similar IC50 values. Varying concentrations of AgRP 7C and AgTx 7C variants were incubated with FLAG-AgRP 7A and allowed to compete for binding to integrin receptors expressed on the surface of K562-αvβ3 cells. Representative competition binding curves are shown, and are plotted as knottin concentration versus the fraction of FLAG-AgRP 7A bound. IC50 values reported as mean of three experiments ± SD. TEXT PRINTED IN THE PICTURE: AgRP 7C: IC50 (nM): 2.2 ± 1.0 | AgTx 7C ΔR21: IC50 (nM): 2.3 ± 0.5 | AgTx 7C P22G R24I: IC50 (nM): 8.1 ± 1.6 | AgTx 7C ΔR21 P22G R24I: IC50 (nM): 5.1 ± 1.6 | AgTx 7C ΔR9: IC50 (nM): 2.5 ± 0.4
# Competition binding assays were performed on K562 leukemia cells transfected to express high levels of αvβ3 integrins. Varying concentrations of AgRP 7C and AgTx variants were incubated with 5×10^4 K562-αvβ3 cells in IBB for 4 hr at 4 °C, along with a constant concentration (0.5 nM) of recombinantly expressed FLAG-AgRP 7A knottin as a competitor. FLAG-AgRP 7A binds with high affinity to αvβ3 integrin and contains an N-terminal epitope tag (DYKDDDDK), allowing cell surface binding to be detecting using an anti-FLAG antibody. Care was taken to allow adequate time for equilibrium binding and to avoid ligand depleting conditions. […] Cells were washed with BPBS and analyzed by flow cytometry on a FACSCalibur instrument (BD Biosciences), and data was quantified using FlowJo software (TreeStar). IC50 values were determined by nonlinear regression analysis using KaleidaGraph (Synergy Software). […]
# [3] = molecular target: T2, αvβ3 integrins expressed on U87MG glioblastoma cells (Homo sapiens, UniProt P05106+P06756); experiment: Competition binding assay on U87MG glioblastoma cells (FLAG-AgRP 7A competitor, flow cytometry); conditions: competition with 5 nM FLAG-AgRP 7A, 5×10^4 U87MG cells in IBB, 4 hr at 4 °C, mean of three experiments ± SD
# T2 construct: U87MG glioblastoma cells, which express high levels of αvβ3 integrin receptors; host or cells: U87MG human glioblastoma cells
# From the text: For simplicity, we chose to move forward with AgTx 7C ΔR21 for in vivo molecular imaging studies. To visualize tumor targeting and tissue biodistribution, we conjugated the near-infrared dye Alexa Fluor 680 (AF680) to the N-terminal amino group of AgTx 7C ΔR21 (Fig. S3A). We also synthesized AF680-labeled versions of AgRP 7C and EETI 2.5F for comparison studies. AF680-labeled EETI RDG, which contains a scrambled integrin recognition sequence, [30], served as a non-binding control. AF680-labeled knottin peptides were purified by RP-HPLC and had the expected masses for the addition of one dye molecule (Fig. S3B, C). Competition binding assays were used to determine if AF680 conjugation affected integrin recognition. FLAG-AgRP 7A was used to compete for knottin binding to U87MG human glioblastoma cells (Fig. 4).
# Figure 4 Unlabeled and AF680-labeled knottins bind U87MG cells with high affinity. […]
# Competition binding assays were performed on K562 leukemia cells transfected to express high levels of αvβ3 integrins. […] Cells were washed with BPBS and analyzed by flow cytometry on a FACSCalibur instrument (BD Biosciences), and data was quantified using FlowJo software (TreeStar). IC50 values were determined by nonlinear regression analysis using KaleidaGraph (Synergy Software). […]
Compound,Stability in serum and blood [1],IC50 [2] [nM],other results
"CC(C)C[C@@H]1NC(=O)[C@@H]2CSSC[C@@H]3NC(=O)[C@H]([C@@H](C)O)NC(=O)[C@H](C)NC(=O)[C@H](C)NC(=O)[C@@H]4CCCN4C(=O)[C@H](CC(=O)O)NC(=O)[C@H](CSSC[C@H](NC(=O)CN)C(=O)N[C@@H](C(C)C)C(=O)N[C@@H](CCCNC(=N)N)C(=O)N[C@@H](CC(C)C)C(=O)N[C@@H](Cc4c[nH]cn4)C(=O)N[C@@H](CCC(=O)O)C(=O)N[C@@H](CO)C(=O)N2)NC(=O)[C@H](CSSC[C@@H](C(=O)N[C@@H](CCCNC(=N)N)C(=O)O)NC(=O)[C@H](Cc2ccc(O)cc2)NC(=O)[C@@H]2CSSC[C@H](NC(=O)[C@H](Cc4ccc(O)cc4)NC3=O)C(=O)N[C@@H](Cc3ccc(O)cc3)C(=O)NCC(=O)N[C@@H](CCCNC(=N)N)C(=O)NCC(=O)N[C@@H](CC(=O)O)C(=O)N[C@@H](CC(N)=O)C(=O)N[C@@H](CC(=O)O)C(=O)N[C@@H](CC(C)C)C(=O)N[C@@H](CCCNC(=N)N)C(=O)N2)NC(=O)[C@@H]2CCCN2C(=O)[C@H](C(C)C)NC(=O)[C@H](CCC(N)=O)NC(=O)[C@H](CCC(N)=O)NC(=O)CNC1=O [AgRP 7C] (H-GCVRLHESCLGQQVPCCDPAATCYCYGRGDNDLRCYCR-OH; disulfide 2-17, 9-23, 16-37, 25-35)",remarkably stable in serum and blood,–,"Metabolic breakdown in the liver, kidneys, and tumor ([1]; compared to EETI 2.5F): higher levels of metabolic breakdown"
"CC[C@H](C)[C@@H]1NC(=O)[C@@H](NC(=O)CN)CSSC[C@@H]2NC(=O)[C@@H]3CSSC[C@@H](C(=O)N[C@H](C(=O)O)[C@@H](C)O)NC(=O)[C@H](CCC(=O)O)NC(=O)[C@@H]4CSSC[C@H](NC(=O)[C@H]([C@@H](C)CC)NC(=O)[C@H](CSSC[C@H](NC(=O)[C@H](CCCNC(=N)N)NC(=O)CNC(=O)[C@H](Cc5ccc(O)cc5)NC(=O)[C@H](CC(=O)O)NC(=O)[C@H](CCC(=O)O)NC(=O)[C@H](C)NC1=O)C(=O)N[C@@H]([C@@H](C)O)C(=O)N[C@@H](Cc1c[nH]c5ccccc15)C(=O)NCC(=O)NCC(=O)N[C@@H]([C@@H](C)O)C(=O)N1CCC[C@H]1C(=O)N3)NC(=O)CNC(=O)[C@H](CCCNC(=N)N)NC(=O)CNC(=O)[C@H](CCCNC(=N)N)NC2=O)C(=O)N[C@@H](Cc1ccc(O)cc1)C(=O)NCC(=O)N[C@@H](CCCNC(=N)N)C(=O)NCC(=O)N[C@@H](CC(=O)O)C(=O)N[C@@H](CC(N)=O)C(=O)N[C@@H](CC(=O)O)C(=O)N[C@@H](CC(C)C)C(=O)N[C@@H](CCCNC(=N)N)C(=O)N4 [AgTx 7C P22G R24I] (H-GCIAEDYGRCTWGGTPCCRGRGCICYGRGDNDLRCECT-OH; disulfide 2-18, 10-23, 17-37, 25-35)",–,8.1 ± 1.6,–
"CC[C@H](C)[C@@H]1NC(=O)[C@@H](NC(=O)CN)CSSC[C@@H]2NC(=O)[C@@H]3CSSC[C@@H](C(=O)N[C@H](C(=O)O)[C@@H](C)O)NC(=O)[C@H](CCC(=O)O)NC(=O)[C@@H]4CSSC[C@H](NC(=O)[C@H]([C@@H](C)CC)NC(=O)[C@H](CSSC[C@H](NC(=O)[C@H](CCCNC(=N)N)NC(=O)CNC(=O)[C@H](Cc5ccc(O)cc5)NC(=O)[C@H](CC(=O)O)NC(=O)[C@H](CCC(=O)O)NC(=O)[C@H](C)NC1=O)C(=O)N[C@@H]([C@@H](C)O)C(=O)N[C@@H](Cc1c[nH]c5ccccc15)C(=O)NCC(=O)NCC(=O)N[C@@H]([C@@H](C)O)C(=O)N1CCC[C@H]1C(=O)N3)NC(=O)CNC(=O)CNC(=O)[C@H](CCCNC(=N)N)NC2=O)C(=O)N[C@@H](Cc1ccc(O)cc1)C(=O)NCC(=O)N[C@@H](CCCNC(=N)N)C(=O)NCC(=O)N[C@@H](CC(=O)O)C(=O)N[C@@H](CC(N)=O)C(=O)N[C@@H](CC(=O)O)C(=O)N[C@@H](CC(C)C)C(=O)N[C@@H](CCCNC(=N)N)C(=O)N4 [AgTx 7C ΔR21 P22G R24I] (H-GCIAEDYGRCTWGGTPCCRGGCICYGRGDNDLRCECT-OH; disulfide 2-18, 10-22, 17-36, 24-34)",–,5.1 ± 1.6,–
"CC[C@H](C)[C@@H]1NC(=O)[C@@H](NC(=O)CN)CSSC[C@@H]2NC(=O)[C@@H]3CSSC[C@@H](C(=O)N[C@H](C(=O)O)[C@@H](C)O)NC(=O)[C@H](CCC(=O)O)NC(=O)[C@@H]4CSSC[C@H](NC(=O)[C@H](CCCNC(=N)N)NC(=O)[C@H](CSSC[C@H](NC(=O)[C@H](CCCNC(=N)N)NC(=O)CNC(=O)[C@H](Cc5ccc(O)cc5)NC(=O)[C@H](CC(=O)O)NC(=O)[C@H](CCC(=O)O)NC(=O)[C@H](C)NC1=O)C(=O)N[C@@H]([C@@H](C)O)C(=O)N[C@@H](Cc1c[nH]c5ccccc15)C(=O)NCC(=O)NCC(=O)N[C@@H]([C@@H](C)O)C(=O)N1CCC[C@H]1C(=O)N3)NC(=O)[C@@H]1CCCN1C(=O)CNC(=O)[C@H](CCCNC(=N)N)NC2=O)C(=O)N[C@@H](Cc1ccc(O)cc1)C(=O)NCC(=O)N[C@@H](CCCNC(=N)N)C(=O)NCC(=O)N[C@@H](CC(=O)O)C(=O)N[C@@H](CC(N)=O)C(=O)N[C@@H](CC(=O)O)C(=O)N[C@@H](CC(C)C)C(=O)N[C@@H](CCCNC(=N)N)C(=O)N4 [AgTx 7C ΔR21] (H-GCIAEDYGRCTWGGTPCCRGPCRCYGRGDNDLRCECT-OH; disulfide 2-18, 10-22, 17-36, 24-34)",–,2.3 ± 0.5,"IC50 ([3]; unlabeled knottin, read-out: IC50, Unlabeled): 10 ± 1 nM"
"CC(C)C[C@@H]1NC(=O)[C@@H]2CSSC[C@@H](C(=O)NCC(=O)O)NC(=O)[C@H](Cc3ccccc3)NC(=O)CNC(=O)[C@H](CC(N)=O)NC(=O)[C@@H]3CCCN3C(=O)CNC(=O)[C@@H]3CSSC[C@H](NC(=O)[C@H]([C@@H](C)O)NC(=O)[C@H](CC(C)C)NC(=O)[C@@H]4CCCN4C(=O)[C@@H]4CCCN4C(=O)[C@H](CC(N)=O)NC(=O)[C@H](CC(=O)O)NC(=O)CNC(=O)[C@H](CCCNC(=N)N)NC(=O)[C@@H]4CCCN4C(=O)[C@H](CCCNC(=N)N)NC(=O)[C@@H]4CCCN4C(=O)[C@@H](NC(=O)CN)CSSC[C@H](NC(=O)CNC(=O)[C@H](C)NC1=O)C(=O)N[C@@H](C(C)C)C(=O)N3)C(=O)N[C@@H](CO)C(=O)N[C@@H](CCC(N)=O)C(=O)N[C@@H](CC(=O)O)C(=O)N[C@@H](CO)C(=O)N[C@@H](CC(=O)O)C(=O)N2 [EETI 2.5F] (H-GCPRPRGDNPPLTCSQDSDCLAGCVCGPNGFCG-OH; disulfide 2-24, 14-26, 20-32)",remarkably stable in serum and blood,–,–
AF680-labeled EETI 2.5F: EETI 2.5F with one Alexa Fluor 680 dye at the N-terminus (CPRPRGDNPPLTCKQDSDCLAGCVCGPNGFCG; Alexa Fluor 680 on N-terminal amine; 3 disulfides),–,–,"IC50 ([3]; AF680-labeled knottin, read-out: IC50, AF680 labeled): 4 ± 0.2 nM"
